Reference: patent US6107316A, “Method for treating protozoal infections” (priority 1998, dated 2000)

How the values were obtained:
Toxoplasma gondii [1] = test: growth inhibition of T. gondii in L929 host cells ([3H]-uracil incorporation); type: cell-based; settings: Toxoplasma gondii, L929 host cells; for inhibition at 0.05 µg/mL: 0.05 μg/ml; for inhibition at 0.5 µg/mL: 0.5 μg/ml; for inhibition at 0.5 µg/mL / inhibition at 5 µg/mL / inhibition at 25 µg/mL: read-out: % Inhibition; for inhibition at 5 µg/mL: 5.0 μg/ml; for inhibition at 25 µg/mL: 25.0 μg/ml
Protocol: (§1) Compounds were tested for it vitro growth inhibitory activity against Toxoplasma gondii replication in L929 (L929-ATCC CCL 1, mouse connective tissue) or HFF (human foreskin fibroblast) host cells using the [^3 H]-uracil incorporation technique as follows. Host cells were grown in 96-well flat-bottom microtiter plates at 37° C in a 5% carbon dioxide environment in modified Eagle's medium containing penicillin, streptomycin and 10% fetal equine serum. Wells containing a homogeneous confluent monolayer of host cells were infected with T. gondii tachyzoites at a ratio of 3 parasites per cell (approximately 6×10^4 tachyzoites per well containing 100 μl of medium). […] Two hours post infection, the cultures were washed to remove free parasites and the various dilutions of test compound were added. Cells were subsequently collected at 24, 48 and 72 hours. Four hours prior to each harvesting 50 Al of [^3 H]-uracil (1 μCi) was added. Cells were collected using a cell harvester and incorporated radioactivity was measured using a scintillation counter. […]

Toxoplasma gondii [2] = test: growth inhibition of T. gondii in HFF host cells ([3H]-uracil incorporation); type: cell-based; settings: Toxoplasma gondii; for inhibition at 0.5 µg/mL: 0.5 μg/ml; for inhibition at 0.05 µg/mL: 0.05 μg/ml; for inhibition at 25 µg/mL: 25.0 μg/ml
Protocol: as §1

[3] = cytotoxicity towards L929 host cells (Cell Titer 96); settings: mouse, % Inhibition of host cell growth (values in parenthesis)
Protocol: (§2) Cytotoxicity of the test compounds towards host cells was determined using the Cell Titer 96™ it (Promega Corporation, Madison, Wis.) as follows. Cells were seeded at a concentration of 5×10^3 cells per well containing 100 μl of medium in 96-well flat-bottom microtiter plates and incubated at 37° C. in a 5% carbon dioxide environment for 4 hours. Dilutions of the test compounds prepared as described above were then added, and incubation continued for 24, 48 or 72 hours. Four hours before each of these time points the growth medium containing test compound was replaced with 100 μl of fresh medium followed by addition of 16 μl of the kit dye solution. After incubation at 37° C. for another 4 hours, 100 μl of the kit solubilization/stop solution was added to each well, the contents of the wells were mixed and the plates kept 1 hour at room temperature. The plates were then read spectrophotometrically in a plate reader at a wavelength of 570 nm. […] Atovaquone was included in the test as a standard.

[4] = cytotoxicity towards HFF host cells (Cell Titer 96); settings: human, % Inhibition of host cell growth (values in parenthesis)
Protocol: as §2

Cryptosporidium parvum = test: growth inhibitory activity against C. parvum in host MDBKF5D2 cells (immunofluorescence); type: cell-based; settings: Cryptosporidium parvum, 48 h
Protocol: (§3) Compounds were tested for in vitro growth inhibitory activity against C. parvum grown in host MDBKF5D2 cells and for toxicity towards the host cells as follows. […] To test for toxicity towards the host cells, the media containing test compound (200 μl) were introduced into two wells of a 96 well microtiter plate containing confluent MDBKF5D2 cell monolayers and two wells without monolayers, and incubated at 37° C. in an 8% carbon dioxide environment. After 48 hours, the tetrazolium salt MTS (Owen's solution) and phenazine methosulfate were added to each well at concentrations of 333 μg/ml and 25 μM, respectively. The plate was returned to the incubator in the dark to develop for 2 hours, then 100 μl of each supernatant was transferred to a new microtiter plate and read spectrophotometrically in a plate reader at a wavelength of 490 nm. Percent toxicity was calculated by subtracting the mean optical density (OD) of the drug supernatants from the OD of medium control supernatants (no drug), dividing by the OD of the medium control, and multiplying by 100. To test for growth inhibitory activity against C. parvum, 3×10^4 oocysts per well were incubated in mentioned concentrations of each drug at 37° C. (8% CO2) on confluent MDBKF5D2 cell monolayers in 96 well microtiter plates. After 48 hours, the level of infection in each well was determined by means of an immunofluorescence assay. Percent inhibition of growth was calculated by subtracting the mean parasite count in the wells containing test compound from the mean parasite count in the medium control wells (no test compound), dividing by the mean parasite count in the medium control wells, and multiplying by 100. Paromomycin was included in the test as a standard.

[5] = toxicity towards MDBKF5D2 host cells (MTS); settings: bovine, mdbkf5d2 cells, Cytotoxicity (percent toxicity)
Protocol: as §3

[6] = 24 h, HFF host cells, 24 hours, read-out: % Inhibition
[7] = 24 h, HFF host cells, 5.0 μg/ml, 24 hours, read-out: % Inhibition
[8] = 48 h, HFF host cells, 48 hours, read-out: % Inhibition
[9] = 48 h, HFF host cells, 5.0 μg/ml, 48 hours, read-out: % Inhibition
[10] = 72 h, HFF host cells, 72 hours, read-out: % Inhibition
[11] = 72 h, HFF host cells, 5.0 μg/ml, 72 hours, read-out: % Inhibition

SMILES	inhibition at 0.5 µg/mL (Toxoplasma gondii [1]; L929, 24 h, 24 hours) [%]	inhibition at 5 µg/mL (Toxoplasma gondii [1]; L929, 24 h, 24 hours) [%]	inhibition at 0.5 µg/mL (Toxoplasma gondii [1]; L929, 48 h, 48 hours) [%]	inhibition at 5 µg/mL (Toxoplasma gondii [1]; L929, 48 h, 48 hours) [%]	inhibition at 0.5 µg/mL (Toxoplasma gondii [1]; L929, 72 h, 72 hours) [%]	inhibition at 5 µg/mL (Toxoplasma gondii [1]; L929, 72 h, 72 hours) [%]	inhibition at 0.5 µg/mL (Toxoplasma gondii [2]; [6]) [%]	inhibition at 5 µg/mL (Toxoplasma gondii [2]; [7]) [%]	inhibition at 0.5 µg/mL (Toxoplasma gondii [2]; [8]) [%]	inhibition at 5 µg/mL (Toxoplasma gondii [2]; [9]) [%]	inhibition at 0.5 µg/mL (Toxoplasma gondii [2]; [10]) [%]	inhibition at 5 µg/mL (Toxoplasma gondii [2]; [11]) [%]	inhibition at 24 h ([3]; L929, 0.5 μg/ml) [%]	inhibition at 48 h ([3]; L929, 0.5 μg/ml) [%]	inhibition at 24 h ([3]; L929, 5.0 μg/ml) [%]	inhibition at 48 h ([3]; L929, 5.0 μg/ml) [%]	inhibition at 72 h ([3]; L929, 5.0 μg/ml) [%]	inhibition at 24 h ([4]; 5.0 μg/ml) [%]	inhibition at 48 h ([4]; 5.0 μg/ml) [%]	inhibition at 72 h ([4]; 5.0 μg/ml) [%]	also measured
O=C1C(O)=C([C@H]2CC[C@H](c3ccc(Cl)cc3)CC2)C(=O)c2ccccc21 [Atovaquone, reference compound]	85.2	80.3	99	100	98.4	97.8	98.3	95.5	77.8	99.8	99.8	100	14.3	15	20	54.1	78.1	6.2	31.1	28.1	inhibition at 0.05 µg/mL (Toxoplasma gondii [1]; L929, 24 h, 24 hours): 80.9%; inhibition at 0.05 µg/mL (Toxoplasma gondii [1]; L929, 48 h, 48 hours): 0%; inhibition at 0.05 µg/mL (Toxoplasma gondii [1]; L929, 72 h, 72 hours): 0%; inhibition at 0.05 µg/mL (Toxoplasma gondii [2]; 48 h, HFF host cells): 50.5%; inhibition at 0.05 µg/mL (Toxoplasma gondii [2]; 72 h, HFF host cells): 89.4%; inhibition at 24 h ([3]; L929, 0.05 μg/ml): 0%; inhibition at 48 h ([3]; L929, 0.05 μg/ml): 0%; inhibition at 72 h ([3]; L929, 0.05 μg/ml): 0.2%; inhibition at 72 h ([3]; L929, 0.5 μg/ml): 44.4%; inhibition at 24 h ([4]; 0.05 μg/ml): 0%; inhibition at 48 h ([4]; 0.05 μg/ml): 0%; inhibition at 72 h ([4]; 0.05 μg/ml): 0%; inhibition at 24 h ([4]; 0.5 μg/ml): 0%; inhibition at 48 h ([4]; 0.5 μg/ml): 9.6%; inhibition at 72 h ([4]; 0.5 μg/ml): 1.4%
CCC(C)(NC(=O)c1cc(F)c(F)c(F)c1)C(=O)CCl (stereo not shown) [Compound 11]		21.5		80.1		95.4		73.4		98.4		97.7			0	5.5	36.9	2.1	6.1	0	inhibition at 25 µg/mL (Toxoplasma gondii [1]; L929, 24 h, 24 hours): 25.6%; inhibition at 25 µg/mL (Toxoplasma gondii [1]; L929, 48 h, 48 hours): 66.1%; inhibition at 25 µg/mL (Toxoplasma gondii [1]; L929, 72 h, 72 hours): 73.6%; inhibition at 25 µg/mL (Toxoplasma gondii [2]; [6]): 91.9%; inhibition at 25 µg/mL (Toxoplasma gondii [2]; [8]): 98.8%; inhibition at 25 µg/mL (Toxoplasma gondii [2]; [10]): 97.7%; inhibition at 24 h ([3]; L929, 25.0 μg/ml): 22.6%; inhibition at 48 h ([3]; L929, 25.0 μg/ml): 60.1%; inhibition at 72 h ([3]; L929, 25.0 μg/ml): 89.6%; inhibition at 24 h ([4]; 25.0 μg/ml): 17.5%; inhibition at 48 h ([4]; 25.0 μg/ml): 20%; inhibition at 72 h ([4]; 25.0 μg/ml): 50.1%; inhibition at 0.1 µM (Cryptosporidium parvum): 5.6%; inhibition at 1 µM (Cryptosporidium parvum): 18.1%; inhibition at 10 µM (Cryptosporidium parvum): 23.9%; inhibition at 100 µM (Cryptosporidium parvum): 86.2%; cytotoxicity at 48 h, 0.1 µM [5]: 0%; cytotoxicity at 48 h, 1 µM [5]: 0%; cytotoxicity at 48 h, 10 µM [5]: 0%; cytotoxicity at 48 h, 100 µM [5]: 2.7%
CCC(C)(NC(=O)c1cc(F)cc(F)c1)C(=O)CCl (stereo not shown) [Compound 12]	42	2.8	77.6	55	59	86.2	53.4	84.4	95.3		91.6	99.8	8	0	18.9	66.8	88	7.7	29.1	41.3	inhibition at 5 µg/mL (Toxoplasma gondii [2]; 48 h): 97.3%; inhibition at 72 h ([3]; L929, 0.5 μg/ml): 0%; inhibition at 24 h ([4]; 0.5 μg/ml): 4.6%; inhibition at 48 h ([4]; 0.5 μg/ml): 5.4%; inhibition at 72 h ([4]; 0.5 μg/ml): 0%; inhibition at 0.1 µM (Cryptosporidium parvum): 9.4%; inhibition at 1 µM (Cryptosporidium parvum): 7.2%; inhibition at 10 µM (Cryptosporidium parvum): 21.3%; inhibition at 100 µM (Cryptosporidium parvum): 88.9%; cytotoxicity at 48 h, 0.1 µM [5]: 11.2%; cytotoxicity at 48 h, 1 µM [5]: 2.5%; cytotoxicity at 48 h, 10 µM [5]: 9.9%; cytotoxicity at 48 h, 100 µM [5]: 9.9%
NC[C@@H]1O[C@H](O[C@H]2[C@@H](O)[C@H](O[C@@H]3[C@@H](O)[C@H](N)C[C@H](N)[C@H]3O[C@H]3O[C@H](CO)[C@@H](O)[C@H](O)[C@H]3N)O[C@@H]2CO)[C@H](N)[C@@H](O)[C@@H]1O [Paromomycin, reference compound]																					inhibition at 2000 µg/mL (Cryptosporidium parvum): 77.8%
